In paper PMC2914685 (Analytical biochemistry, 2010):
No end group written: not given here.

Assays:
Abl SH3 domain [1] = molecular target: T1, Abl SH3 domain (Homo sapiens, UniProt P00519); settings: computationally predicted from the human proteome; ref [30]; [31] (Personal communication); cited from earlier work
Abl SH3 domain [2] = molecular target: T1, Abl SH3 domain; experiment: Tetracycline repressor-based mammalian two-hybrid assay; format: cell-based; settings: HEK 293 cells, 48 hours post-transfection, fluorescence microscopy, Figure 2
Abl SH3 domain (SH3-His) = experiment: Abl SH3 domain Western blot-type detection; format: binding, human; settings: fluorescence under UV 365 nm, estimated, data not shown
SH3-His = SH3-His (human, UniProt P00519 61-121); experiment: fluorescence polarisation
Sequence of SH3-His (P00519 61-121): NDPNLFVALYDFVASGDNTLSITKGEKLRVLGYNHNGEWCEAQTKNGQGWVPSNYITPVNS

T1 sequence (P00519 61-121 limits assumed): as the sequence (P00519 61-121) above

Row | Molecule | predicted binding to Abl SH3 domain (Abl SH3 domain [1]) | interaction with Abl SH3 domain in vivo (AcGFP expression) (Abl SH3 domain [2]) | also measured
1 | AAAMQKPSLP [BOT1] | non-binding peptide | – | –
2 | APAFPPPSPP [TOP1] | binding peptide | positive interaction | –
3 | MGAGAPAFPPPSPP@EF-(GFP)-His6 [TOP1-DOPA-GFP] | – | – | lowest limit of detection of SH3-His (Abl SH3 domain (SH3-His)): about 0.5 μg
4 | TetR-BOT1: TetR with dimerization domain replaced with BOT1 (AAAMQKPSLP; also: insert only, fused into TetR protein) | – | does not bind to TetR-SH3 | –
5 | APAFPPPSPP (also: FITC label, position not given here) [TOP1-FITC] | – | – | Kd (SH3-His): 16 ± 1 µM
